Measurements taken from article PMC8198038, “In Vitro Evaluation of Antiproliferative Properties of Novel Organotin(IV) Carboxylate Compounds with Propanoic Acid Derivatives on a Panel of Human Cancer Cell Lines” (Molecules, 2021).

Legend:
[1] = system: MCF-7 cells; assay: Morphological analysis (AO and DAPI staining); assay type: cell-based, human; conditions: 24 h, IC50 or 2 × IC50
Experimental: The morphological changes of MCF-7 cell death induced by Ph3SnL1 and cisplatin were studied by AO (acridine orange) and DAPI (4′,6-diamidino-2-phenylindole) staining, and examined under a fluorescence microscope. Acridine orange can cross the cell membrane and viable and early apoptotic cells can be detected. Chromatin condensation, seen as dense green areas, or membrane blebbing, both appearing in apoptosis, is easily proven by AO staining. After 24 h of treatment (IC50 and 2 × IC50 concentrations) the cells were stained with acridine orange (3 μg/mL AO in PBS), and observed with a fluorescence microscope (Fluorescence microscope-Invitrogen EVOS FL 2 Auto 2 Cell Imaging System). On the other hand, for the DAPI assay 0.5 mL of Triton (0.1% in PBS) was added to the treated cells after the fixing the cells with 0.5 mL of 4% paraformaldehyde (PFA) for 8 min. Thereafter, 0.5 mL of DAPI solution was used to stain the cells for 5 min in the dark. The morphological characteristics were visualized under a fluorescence microscope (Fluorescence microscope-Invitrogen EVOS FL 2 Auto 2 Cell Imaging System).

[2] = system: MCF-7 cells; assay: Activation of caspases (apostat, flow cytometry); assay type: cell-based, human
Excerpt: The activation of caspase is closely linked to cell apoptosis, the controlled cell death, via the mitochondrial pathway or cell death receptor [23, 24]. […] Due to this, it can be concluded that cell death is accomplished through caspase-independent apoptosis. Moreover, as MCF-7 cell line is caspase-3 deficient, this was an anticipated result. Besides, the accomplishment of apoptosis induced with Ph3SnL1 in MCF-7 cells (confirmed with AO and DAPI assays) was not disturbed as this type of cell death may be activated through other death signals not involving caspase activation.
The cells were resuspended in 1 mL of PBS and analysed with flow cytometry.

O=C(CCc1nc(-c2ccccc2)c(-c2ccccc2)o1)[O][Sn]([c]1ccccc1)([c]1ccccc1)[c]1ccccc1 [Ph3SnL1, (3-(4,5-Diphenyloxazol-2-yl)propanoato)triphenyltin(IV)]
morphological changes (AO and DAPI staining) [1]: notable morphological changes | mode of cell death [2]: induces caspase-independent apoptosis | caspase activation (apostat) ([2]; 48 h, IC50 concentration): did not induce the activation of caspases
